Values joined by “and” are separate entries in the source; they are usually repeats but may differ in a detail not shown here. Equal values may be shown once. “Also recorded” adds a separate entry of the source.
Tests used:
CD-1 mice (male) = experiment: Acute toxicity of NPe6 in mice (LD50); assay type: in vivo
[1] = in vivo
anti-ds-DNA antibody = experiment: Anti-ds-DNA antibody value in blood of MRL/1pr mice after NPe6 photochemotherapy (Anti-DNA kit); assay type: in vivo
From the text: (§1) MRL/1pr mice, which are known as a model of a spontaneous systemic auto-immune diseases, have such inherent property that they spontaneously develop the systemic auto-immune disease due to 1pr-gene. In this case, the characteristic observations of the resulting auto-immune disease include the formation of lymphoma and splenoma as caused by proliferation of heterolymphoid cells, the production of anti-ds-DNA antibody as the auto-antibody, and (or) the outbreak of lupus nephritis owing to the deposition of immune complexes, whereby an early death of the MRL/1pr mice can naturally be involved. For instance, untreated MRL/1pr mice usually have such nature that their mortality reaches 50% at 25 week-old.
(§2) To MRL/1pr mice (eight mice per group) of 18 week-old age which have been affected completely by auto-immune diseases, a solution of mono-L-aspartyl chlorin e6 tetrasodium salt (abbreviation: NPe6) dissolved in a physiological saline solution at a NPe6 concentration of 0.1 mg/ml was intra-venously administered in such an amount to give a dosage of NPe6 of 0.5 mg/kg. […] After 24 hours from the completion of the therapeutic treatments, which was counted from the final run of irradiation of the laser light applied to the mice of the treated group, and thus at the time when the mice tested became 19 week-old, the judgment was made about the therapeutical effects appeared on the treated mice. […]

MRL/1pr mice [2] = experiment: Kidney function (urea nitrogen in blood, protein in urine) of MRL/1pr mice after NPe6 photochemotherapy; assay type: in vivo; details: 19 weeks old, 24 h after 8th laser irradiation, NPe6 0.5 mg/kg i.v. + 664 nm laser, eight times
From the text: as §1, §2

MRL/1pr mice [3] = experiment: Survival of MRL/1pr mice after NPe6 photochemotherapy; assay type: in vivo; details: for Survival rate (%) of the mice: treated group, 8 mice
From the text: as §1
(§3) To MRL/1pr mice (eight mice per group) of 18 week-old age which have been affected completely by auto-immune diseases, a solution of mono-L-aspartyl chlorin e6 tetrasodium salt (abbreviation: NPe6) dissolved in a physiological saline solution at a NPe6 concentration of 0.1 mg/ml was intra-venously administered in such an amount to give a dosage of NPe6 of 0.5 mg/kg. After 30 minutes from the administration of NPe6, the mice were irradiated with a laser light at wave-length of 664 nm in such a manner that the skin surface on the abdominal region already shaved off of said mice would receive the laser light over a wide area of about 25 cm^2 per mouse tested at an intensity of 20 Joules/cm^2. Thus, the NPe6 contained in the blood stream within the blood vessel beneath the skin of the abdominal region of the mice was irradiated with the laser light and thereby was excited photochemically. Such photochemotherapeutic procedure comprising the intravenous administration of NPe6 and the irradiation of the laser light was applied eight times to each of the mice under test for 10 days. After 24 hours from the completion of the therapeutic treatments, which was counted from the final run of irradiation of the laser light applied to the mice of the treated group, and thus at the time when the mice tested became 19 week-old, the judgment was made about the therapeutical effects appeared on the treated mice. Further, the survival effect on the treated mice was also observed over the period of from the start of practicing this therapeutic treatments to the point of the 49 week-old age of the mice.
For the untreated group of MRL/1pr mice (10 mice per group, 18-weeks old), merely a physiological saline solution (containing no NPe6) was administered intravenously in the same amount as that for the treated group of mice, and then the mice were irradiated with a laser light as similar as the treated group of mice.
(3) After the completion of the treatment as effected by the above-mentioned photochemotherapeutic procedure, the mice under the test were bred to be 49-weeks old and the survival rate (%) of the mice was measured once a week.

MRL/1pr mice [4] = experiment: Liver (GPT enzyme in blood) and skin safety in MRL/1pr mice after NPe6 photochemotherapy; assay type: in vivo
Experimental: as §3, with “Such photochemotherapeutic procedure comprising the intravenous administration of NPe6 and the irradiation of the laser light was applied eight times to each of the mice under test for 10 days.” left out, “Further, the survival effect on the treated mice was also observed over the period of from the start of practicing this therapeutic treatments to the point of the 49 week-old age of the mice.” left out

Structure (SMILES): C=Cc1c(C)c2cc3nc(c(CC(=O)N[C@@H](CC(=O)[O-])C(=O)[O-])c4[nH]c(cc5nc(cc1[nH]2)C(C)=C5CC)c(C)c4C(=O)[O-])[C@@H](CCC(=O)[O-])[C@@H]3C.[Na+].[Na+].[Na+].[Na+] [NPe6, mono-L-aspartyl chlorin e6 tetrasodium salt]
- acute toxicity, LD50 value (CD-1 mice (male)): 164 mg/kg
- photo-toxicity test: reactions such as erythema, edema [1]: no reactions such as erythema, edema
- antibody value of anti-ds-DNA antibody in blood (anti-ds-DNA antibody; 19 weeks old, 24 h after 8th laser irradiation, NPe6 0.5 mg/kg i.v. + 664 nm laser 20 Joules/cm^2, eight times for 10 days): 5.7±5.3 IU/ml
- effect on antibody value of the auto-antibody (anti-ds-DNA) in blood, in words (anti-ds-DNA antibody; NPe6 i.v. + laser light at 664 nm, versus untreated group): decreasing remarkably the antibody value; also recorded: significantly and remarkably decreased
- content of protein in urine (MRL/1pr mice [2]): 85.2 ± 5.0 mg/dL
- content of urea nitrogen in blood (MRL/1pr mice [2]): 22.3 ± 1.4 mg/dL
- Survival rate (%) of the mice (MRL/1pr mice [3]; age 18 weeks (start of treatment), number in parentheses = surviving mice): 100 (8) %
- Survival rate (%) of the mice (MRL/1pr mice [3]; age 20 weeks): 100 (8) %
- Survival rate (%) of the mice (MRL/1pr mice [3]; age 21 weeks): 100 (8) %
- Survival rate (%) of the mice (MRL/1pr mice [3]; age 23 weeks): 100 (8) %
- Survival rate (%) of the mice (MRL/1pr mice [3]; age 25 weeks): 100% and 100 (8) %
- Survival rate (%) of the mice (MRL/1pr mice [3]; age 27 weeks): 100 (8) %
- Survival rate (%) of the mice (MRL/1pr mice [3]; age 30 weeks): 100 (8) %
- Survival rate (%) of the mice (MRL/1pr mice [3]; age 33 weeks): 88 (7) %
- Survival rate (%) of the mice (MRL/1pr mice [3]; age 36 weeks): 88 (7) %
- Survival rate (%) of the mice (MRL/1pr mice [3]; age 43 weeks): 75 (6) %
- Survival rate (%) of the mice (MRL/1pr mice [3]; age 46 weeks): 63 (5) %
- Survival rate (%) of the mice (MRL/1pr mice [3]; age 49 weeks): 63 (5) %
- age at which the survival rate of the mice is 50 % (MRL/1pr mice [3]; treated group of MRL/1pr mice): > 49 weeks
- content of GPT enzyme in the blood compared with untreated group (MRL/1pr mice [4]; 19 weeks old, 24 h after 8th laser irradiation): no difference was found
- visual observation of the skin after eight percutaneous laser irradiations (MRL/1pr mice [4]; shaved abdominal region, 664 nm laser 20 Joules/cm^2): not observed visually that any action of changing the skin was involved

— patent publication US6653337B2, “Therapy of auto-immune disease by a photochemotherapeutical method” (Meiji Seika Kaisha, Ltd., priority 1996, dated 2003)
